Data reported in US7713994B2 (Wyeth LLC, priority 2005, dated 2010).
Read-outs that look alike come from different tables or passages of the source.

Tests used:
MCF-7 = experiment: Cytotoxicity assay (SRB), MCF-7; format: cell-based; conditions: Homo sapiens, MCF7, 72 h, MCF-7 cells, SRB, read-out: In Vitro Cellular Activity IC50 MCF-7
Summary of the method: (§1)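 Protein staining with sulforhodamine B after cold TCA fixation served as the survival endpoint (A540, relative to untreated cells). Before staining, cells were incubated with compound at 37 °C, 7% CO2 for 3 days, or 6 days for BT474.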

cyclin E/CDK2 enzyme = target: T1, cyclin E/CDK2 enzyme (Homo sapiens, UniProt P24941); experiment: CDK2 ELISA kinase assay (phospho-Rb ser 795 detection); format: biochemical
T1 construct: made in house; host or cells: Sf9 insect cells, recombinant baculovirus
Summary of the method: (§2)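 ELISA format: plate-bound GST-Rb, 200 μM ATP, Sf9 cyclin/CDK enzyme, 1 h at 30° C; then anti-pRb Ser795 primary overnight at 4° C, HRP secondary, TMB. IC50 after no-substrate background subtraction.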

cyclin B/CDK1 enzyme = target: T2, cyclin B/CDK1 enzyme (Homo sapiens, UniProt P06493); experiment: CDK1 ELISA kinase assay (phospho-Rb ser 795 detection); format: biochemical
T2 construct: purchased New England BioLabs; host or cells: Sf9 insect cells, recombinant baculovirus
T2 sequence (P06493 whole entry): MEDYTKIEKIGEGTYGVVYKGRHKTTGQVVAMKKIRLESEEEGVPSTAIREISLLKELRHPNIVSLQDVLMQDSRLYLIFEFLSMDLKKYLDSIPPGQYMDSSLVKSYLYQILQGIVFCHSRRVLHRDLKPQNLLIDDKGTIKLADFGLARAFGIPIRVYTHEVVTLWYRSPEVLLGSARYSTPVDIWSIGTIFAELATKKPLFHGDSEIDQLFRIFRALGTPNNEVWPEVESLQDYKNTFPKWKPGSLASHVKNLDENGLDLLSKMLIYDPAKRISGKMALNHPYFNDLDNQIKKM
T2 sequence (P14635 whole entry partner): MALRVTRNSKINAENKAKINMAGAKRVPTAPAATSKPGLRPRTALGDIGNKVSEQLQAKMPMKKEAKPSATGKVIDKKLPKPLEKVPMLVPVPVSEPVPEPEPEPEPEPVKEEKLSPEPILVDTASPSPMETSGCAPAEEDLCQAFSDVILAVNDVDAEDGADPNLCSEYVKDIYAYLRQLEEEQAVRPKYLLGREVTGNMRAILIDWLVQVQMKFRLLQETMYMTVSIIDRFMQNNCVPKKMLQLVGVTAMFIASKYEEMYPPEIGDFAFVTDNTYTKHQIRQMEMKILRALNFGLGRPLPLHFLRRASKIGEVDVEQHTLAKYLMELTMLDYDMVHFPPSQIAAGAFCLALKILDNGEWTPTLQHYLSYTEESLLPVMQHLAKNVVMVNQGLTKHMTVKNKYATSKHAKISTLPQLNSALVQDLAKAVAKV
Summary of the method: as §2

LoVo = experiment: Cytotoxicity assay (SRB), LoVo; format: cell-based; conditions: Homo sapiens, LoVo, 72 h, LoVo cells, SRB, read-out: In Vitro Cellular Activity IC50 LOVO
Summary of the method: as §1

HCT-116 = experiment: Cytotoxicity assay (SRB), HCT-116; format: cell-based; conditions: Homo sapiens, HCT-116, 72 h, HCT116 cells, SRB, read-out: In Vitro Cellular Activity IC50 HCT116
Summary of the method: as §1

cyclin D1/cdk 4 enzyme = target: T3, cyclin D1/cdk 4 enzyme (Homo sapiens, UniProt P11802); experiment: CDK4 ELISA kinase assay (phospho-Rb ser 795 detection); format: biochemical
T3 construct: made in house; host or cells: Sf9 insect cells, recombinant baculovirus
T3 sequence (P11802 whole entry, species assumed): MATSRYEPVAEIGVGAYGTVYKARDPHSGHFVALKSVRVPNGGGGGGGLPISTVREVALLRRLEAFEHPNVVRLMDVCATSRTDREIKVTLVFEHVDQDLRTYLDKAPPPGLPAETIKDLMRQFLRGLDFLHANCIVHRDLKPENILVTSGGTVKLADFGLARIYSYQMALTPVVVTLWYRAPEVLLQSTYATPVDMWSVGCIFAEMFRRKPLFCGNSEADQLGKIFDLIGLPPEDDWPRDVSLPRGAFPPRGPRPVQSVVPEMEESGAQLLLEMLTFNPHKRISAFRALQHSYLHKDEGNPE
T3 sequence (P24385 whole entry partner, species assumed): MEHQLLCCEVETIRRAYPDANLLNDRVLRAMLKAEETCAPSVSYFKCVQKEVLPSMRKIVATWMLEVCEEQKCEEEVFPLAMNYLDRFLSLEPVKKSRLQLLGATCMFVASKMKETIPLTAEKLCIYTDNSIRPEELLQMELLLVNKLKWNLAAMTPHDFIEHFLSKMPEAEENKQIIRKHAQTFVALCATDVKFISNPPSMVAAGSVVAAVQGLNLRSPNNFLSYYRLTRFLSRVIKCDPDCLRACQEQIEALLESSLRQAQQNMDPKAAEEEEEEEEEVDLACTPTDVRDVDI
Summary of the method: as §2

BT474 = experiment: Cytotoxicity assay (SRB), BT474; format: cell-based
Summary of the method: as §1

[1] = In Vitro Enzyme Assay, cyclin E/CDK2, read-out: CDK2 IC50
[2] = In Vitro Enzyme Assay, cyclin B/CDK1, read-out: CDK1 IC50
[3] = In Vitro Enzyme Assay, cyclin D1/cdk 4, read-out: CDK4 IC50
[4] = Homo sapiens, BT-474, 144 h, BT474 cells, 6 days, SRB; read-out: In Vitro Cellular Activity IC50 BT474
[5] = In Vitro Enzyme Assays, read-out: CDK2 IC50
[6] = In Vitro Enzyme Assays, read-out: CDK1 IC50
[7] = In Vitro Enzyme Assays, 200 μM ATP, read-out: CDK4 IC50
[8] = Homo sapiens, BT-474, 144 h, BT474 cells, SRB, 6 days; read-out: In Vitro Cellular Activity IC50 BT474

melting point | IC50 (cyclin E/CDK2 enzyme; [1]) | IC50 (cyclin B/CDK1 enzyme; [2]) | IC50 (cyclin D1/cdk 4 enzyme; [3]) | IC50 (cyclin E/CDK2 enzyme; [5]) | IC50 (cyclin B/CDK1 enzyme; [6]) | IC50 (cyclin D1/cdk 4 enzyme; [7]) | Compound | IC50 (MCF-7; 3 days) | IC50 (LoVo; 3 days) | IC50 (HCT-116; 3 days) | IC50 (BT474; [4]) | IC50 (MCF-7; three days) | IC50 (LoVo; three days) | IC50 (HCT-116; three days) | IC50 (BT474; [8])
176 to 196 °C (dec.) | 28.7 µM | > 50 µM | 0.007 µM | – | – | – | CCCOc1cn(C)c(CN/C=C2\C(=O)NC(=O)c3ccc(I)cc32)cc1=O [Example 471, 6-Iodo-4-{[(1-methyl-4-oxo-5-propoxy-1,4-dihydro-pyridin-2-ylmethyl)-amino]-methylene}-4H-isoquinoline-1,3-dione] | > 50 µM | > 50 µM | > 50 µM | 21.9 µM | – | – | – | –
213 to 214 °C | – | – | – | > 50 µM | > 50 µM | 17.3 µM | C[C@@H]1CN(c2ccc(N/C=C3\C(=O)NC(=O)c4ccc(Br)cc43)cc2)C[C@H](C)N1C [Example 240, (4Z)-6-Bromo-4-[({4-[(3R,5S)-3,4,5-trimethylpiperazin-1-yl]phenyl}amino)methylene]-isoquinoline-1,3(2H,4H)-dione] | – | – | – | – | 2 µM | 3.7 µM | 2.7 µM | 3.1 µM
141 to 142 °C | – | – | – | > 50 µM | > 50 µM | 3.3 µM | CN1CCN(c2ccc(N/C=C3\C(=O)N(CO)C(=O)c4ccc(Br)cc43)cc2)CC1 [Example 220, (4Z)-6-Bromo-2-(hydroxymethyl)-4-({[4-(4-methylpiperazin-1-yl)phenyl]amino}methylene)isoquinoline-1,3(2H,4H)-dione] | – | – | – | – | 2.4 µM | 3.8 µM | 3.2 µM | 3.3 µM
183 to 184 °C | – | – | – | > 50 µM | 10 µM | 0.04 µM | CN1CCN(c2ccc(N/C=C3\C(=O)NC(=O)c4ccc(-c5coc(C=O)c5)cc43)nc2)CC1 [Example 448, 4-[(4Z)-4-({[5-(4-Methylpiperazin-1-yl)pyridin-2-yl]amino}methylene)-1,3-dioxo-1,2,3,4-tetrahydroisoquinolin-6-yl]-2-furaldehyde] | 5 µM | 4.1 µM | 2.4 µM | 6.6 µM | – | – | – | –
186 to 187 °C | – | – | – | 10 µM | > 50 µM | 0.66 µM | O=C1NC(=O)c2ccc(I)cc2/C1=C/Nc1ccc(CN2CCCC2)cc1 [Example 126] | – | – | – | – | 2.3 µM | 5.1 µM | 3.4 µM | 0.9 µM
310 to 312 °C (dec.) | – | – | – | 21.6 µM | > 50 µM | 0.27 µM | O=C1NC(=O)c2ccc(-n3cccc3)cc2C1=CNCc1cc(=O)c(O)co1 [Example 312, 4-{[(5-Hydroxy-4-oxo-4H-pyran-2-ylmethyl)-amino]-methylene}-6-pyrrol-1-yl-4H-isoquinoline-1,3-dione] | – | – | – | – | > 50 µM | > 50 µM | > 50 µM | 39 µM
224 to 225 °C | – | – | – | 20.2 µM | > 50 µM | > 50 µM | C[C@@H]1CN(c2ccc(N/C=C3\C(=O)NC(=O)c4ccc(Br)cc43)cc2C(F)(F)F)C[C@H](C)N1 [Example 372, (4Z)-6-Bromo-4-({[4-[(3R,5S)-3,5-dimethylpiperazin-1-yl]-3-(trifluoromethyl)phenyl]amino}methylene)isoquinoline-1,3(2H,4H)-dione] | – | – | – | – | 3.2 µM | 1.4 µM | 1.2 µM | 2.9 µM
160 to 161 °C | – | – | – | > 50 µM | > 50 µM | 1 µM | CO[C@@H]1CCN(Cc2ccc(N/C=C3\C(=O)NC(=O)c4ccc(I)cc43)cc2)C1 [Example 264, (4Z)-6-Iodo-4-{[(4-{[(3R)-3-methoxypyrrolidin-1-yl]methyl}phenyl)amino]methylene}isoquinoline-1,3(2H,4H)-dione] | – | – | – | – | 2 µM | 8.8 µM | 4.4 µM | 2.2 µM
200 to 201 °C | > 50 µM | > 50 µM | 1.3 µM | – | – | – | O=C1NC(=O)c2ccc(Br)cc2/C1=C/Nc1ccc(CN2CCC(CCO)CC2)cc1 [Example 489, (4Z)-6-Bromo-4-{[(4-{[4-(2-hydroxyethyl)piperidin-1-yl]methyl}phenyl)amino]methylene}isoquinoline-1,3(2H,4H)-dione] | 3.43 µM | 4.59 µM | 4.04 µM | 6.25 µM | – | – | – | –
227 to 228 °C | – | – | – | 43.4 µM | 28.3 µM | 15.4 µM | COc1ccc(-c2ccc3c(c2)/C(=C/Nc2ccc(N4C[C@@H](C)N[C@@H](C)C4)c(F)c2)C(=O)NC3=O)cc1 [Example 345, (4Z)-4-[({4-[(3R,5S)-3,5-Dimethylpiperazin-1-yl]-3-fluorophenyl}amino)methylene]-6-(4-methoxyphenyl)isoquinoline-1,3(2H,4H)-dione] | – | – | – | – | 1.4 µM | 1.2 µM | 0.94 µM | 0.91 µM
289 to 290 °C | – | – | – | 39.7 µM | 24.2 µM | 33.2 µM | CN1CCN(c2ccc(N/C=C3\C(=O)NC(=O)c4ccc(NS(=O)(=O)c5ccccc5)cc43)cc2)CC1 [Example 188, 1,2,3,4-Tetrahydroisoquinolin-6-yl]benzenesulfonamide′N-[(4Z)-4-({[4-(4-methylpiperazin-1-yl)phenyl]amino}methylene)-1,3-dioxo] | – | – | – | – | 12 µM | 11 µM | 2.2 µM | 3.3 µM
270 to 271 °C | – | – | – | > 50 µM | 31.7 µM | 13.9 µM | CN1CCN(NC(=O)Nc2ccc(N/C=C3\C(=O)NC(=O)c4ccc(Br)cc43)cc2)CC1 [Example 217, N-(4-{[(Z)-(6-Bromo-1,3-dioxo-2,3-dihydroisoquinolin-4(1H)-′ylidene)methyl]amino}phenyl)-N′-(4-methylpiperazin-1-yl)urea] | – | – | – | – | 7.4 µM | 4.8 µM | 2.6 µM | 3.3 µM
255 to 256 °C | – | – | – | > 50 µM | > 50 µM | 0.001 µM | COc1cc(CN/C=C2\C(=O)NC(=O)c3ccc(-c4ccsc4)cc32)cc(O)c1OC [Example 85] | – | – | – | – | 8.4 µM | 2.7 µM | 3.7 µM | 3.5 µM
204 to 205 °C | – | – | – | > 50 µM | > 50 µM | 1.8 µM | O=C1NC(=O)c2ccc(Br)cc2/C1=C/Nc1ccc(N2CCC(N3CCCC3)CC2)c(F)c1 [Example 405, (4Z)-6-Bromo-4-({[3-fluoro-4-(4-pyrrolidin-1-ylpiperidin-1-yl)phenyl]amino}-methylene)-isoquinoline-1,3(2H,4H)-dione] | 5.6 µM | 2 µM | 1.7 µM | 3.1 µM | – | – | – | –
189 to 190 °C | – | – | – | 22.6 µM | 32.4 µM | 0.44 µM | CN1CCN(c2ccc(N/C=C3\C(=O)NC(=O)c4ccc(I)cc43)cn2)CC1 [Example 237, (4Z)-6-Iodo-4-({[6-(4-methylpiperazin-1-yl)pyridin-3-′yl]amino}methylene)isoquinoline-1,3(2H,4H)-dione] | – | – | – | – | 4 µM | 7.4 µM | 2.6 µM | 3.2 µM
206 to 207 °C | – | – | – | > 50 µM | > 50 µM | 2.9 µM | CN1CCN(c2ccc(N/C=C3\C(=O)NC(=O)c4ccc(Br)cc43)cc2F)CC1 [Example 288, (4Z)-6-Bromo-4-({[3-fluoro-4-(4-methylpiperazin-1-yl)phenyl]amino}methylene)-isoquinoline-1,3(2H,4H)-dione] | – | – | – | – | 1.5 µM | 2 µM | 1.7 µM | 1.8 µM
176 to 178 °C | – | – | – | 38 µM | > 50 µM | 27.7 µM | CCCOc1ccc(CN/C=C2\C(=O)N(O)C(=O)c3ccccc32)cc1O [Example 230, 2-Hydroxy-4-[(3-hydroxy-4-propoxy-benzylamino)-methylene]-4H-isoquinoline-1,3-dione] | – | – | – | – | 3.1 µM | 3.8 µM | 2.1 µM | 6.4 µM
